Reference: patent US5348953A, “Substituted azetidinones as anti-inflammatory and antidegenerative agents” (Merck & Co., Inc., priority 1992, dated 1994)

Molecular target: T1, HUMAN PROTEINASE 3 (Homo sapiens, UniProt P24158)
T1 sequence (P24158 28-256): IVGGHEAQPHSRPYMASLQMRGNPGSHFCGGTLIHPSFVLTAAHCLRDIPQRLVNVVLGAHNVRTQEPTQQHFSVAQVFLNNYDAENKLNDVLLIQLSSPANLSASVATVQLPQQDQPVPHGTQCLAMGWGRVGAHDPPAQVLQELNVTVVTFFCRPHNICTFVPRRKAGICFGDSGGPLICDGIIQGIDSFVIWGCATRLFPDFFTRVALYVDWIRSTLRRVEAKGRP
Test: Inhibition of PR3 catalyzed hydrolysis of MeO-Succ-AAPV-pNA
Type: biochemical
Conditions: 45 mM TES pH 7.5, 450 mM NaCl, 10% DMSO; 0.2 mM substrate (TABLE 2); read-out: SORC (second order rate constant, kobs/I)
Experimental: The PR3 catalyzed hydrolysis of MeO-Succ-AAPV-pNA was measured in a spectrophotometer monitoring absorbance at 410 n,m. The enzymatic activity was determined in 45 mM TES at pH 7.5, 450 mM NaCl and 10% DMSO. The data were fit by non-linear regression to equation 1 to obtain the initial rates. The nonlinear progress curves observed with time dependent inhibitors were fit to equation 2 to obtain the first order rate constant Kobs. Results were expressed as kobs/I which is the second order rate constant (SORC) in per mole per second for inactivation of the enzyme.
EQN 2 Y=vs *X+[(vo -vs) (1-e^(-K.sbsp.o^*X))/Ko
Kinetic constants for the inhibition of PR3 catalyzed hydrolysis of 0.2 mM MoO-succ-AAPV-pNA were determined by varying the concentration of inhibitor present in the reaction vessel.

Row | Structure (SMILES) | kinact/KI [M⁻¹ s⁻¹]
1 | CCC[C@@H](NC(=O)N1C(=O)C(CC)(CC)[C@@H]1OCC(=O)N(CC)CCN(C)CCOC)c1ccc(C)cc1 [2-(S)-[2-[[2-((2-Methoxyethyl)-methylamino)ethyl]ethylamino]-2-oxoethoxy]-3,3-diethyl-N-[1-(R)-(4methylphenyl)butyl]-4-oxo-1-azetidinecarboxamide] | 13700
2 | CCC[C@@H](NC(=O)N1C(=O)C(CC)(CC)[C@@H]1OCC(=O)N1CCN(C)CC1)c1ccc(C)cc1 [R2=4-Me; R5=H; Z=--Me, 2-(S)-[2-[2-(4-Methyl)piperazin-1-yl]-2-oxoethoxy]-3,-3-diethyl-N-[1-(R)-(4-methylphenyl)-butyl]4-oxo-1-azetidinecarboxamide] | 14800
3 | CCC[C@@H](NC(=O)N1C(=O)C(CC)(CC)[C@@H]1OCC(=O)N(CC)CCN(C)C)c1ccc(C)cc1 [Y=N(Et)CH2 CH2; R5=H; R7=Me; R8=Me, 2-(S)-[2-[[2-(Dimethylamino)ethyl]ethylamino]-2-oxoethoxy]-3,3-diethyl-N-[1-(R)-(4-methylphenyl)butyl]-4-oxo-1-azetidinecarboxamide] | 7900

Test system: not listed separately
Test: Extended storage of the L-malic acid salt at rt
Type: physicochemical
Conditions: not given
From the text: NMR (CDCl3 δ from TMS): 0.9-1.0 (m, 6H), 1.0-1.1 (m, 6H), 1.2-1.4 (m, 2H), 1.6-1.95(2 m's, 6H), 2.30 (s, 3H), 2.6-2.9 (2 m's, 4H), 2.92 and 2.94 (2 s, 3H), 3.2-3.4 (m, 2H), 3.52 (br t, 2H, J=8 Hz), 4.5-4.8 (m, 3H), 5.11 (br s, 1H), 7.04 (2 d's, 1H, J=8Hz), 7.13 (br S, 4H).
The material prepared as described above in Example 20, Step A was hydrogenated as described in Example 19, Step B to afford the L-malic acid salt of 2-(S)-[2-[[2-aminoethyl]-ethylamino]-2-oxoethoxy]-3,3-diethyl-N-[1-(R)-(4- methylphenyl)butyl]-4-oxo-1-azetidinecarboxamide as an oil. […] This process could be evaluated by HPLC analysis.

Row | Structure (SMILES) | stability upon storage
4 | CCC[C@@H](NC(=O)N1C(=O)C(CC)(CC)[C@@H]1OCC(=O)N(CC)CCNC)c1ccc(C)cc1 [Example 19, 2-(S)-[2-[[2-Methylaminoethyl]-ethylamino]-2-oxoethoxy]-3,3-diethyl-N-[1-(R)-(4-methylphenyl)butyl]-4-oxo-1-azetidinecarboxamide] | rearranges to an isomeric equilibrium mixture
5 | CCC[C@@H](NC(=O)N1C(=O)C(CC)(CC)[C@@H]1OCC(=O)N(CC)CCN)c1ccc(C)cc1 [Example 20, 2-(S)-[2-[[2-Aminoethyl]-ethylamino]-2-oxoethoxy]-3,3-diethyl-N-[1-(R)-(4-methylphenyl)butyl]-4-oxo-1-azetidinecarboxamide] | rearranged upon storage to an equilibrium mixture of isomers

Molecular target: T2, Human Polymorphonuclear Leukocyte Elastase (Homo sapiens, UniProt P08246)
T2 construct: Crude extract of human polymorphonuclear leukocytes (PMN) containing elastase activity; from tissue; host or cells: human polymorphonuclear leukocytes (crude extract)
T2 sequence (P08246 30-267): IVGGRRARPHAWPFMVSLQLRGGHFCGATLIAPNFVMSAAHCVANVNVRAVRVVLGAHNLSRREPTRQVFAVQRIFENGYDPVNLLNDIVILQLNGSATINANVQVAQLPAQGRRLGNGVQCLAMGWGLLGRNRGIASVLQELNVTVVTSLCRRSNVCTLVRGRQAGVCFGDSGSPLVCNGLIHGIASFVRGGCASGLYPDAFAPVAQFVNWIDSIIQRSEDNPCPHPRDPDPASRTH
Test: Inhibition of human polymorphonuclear leukocyte elastase via hydrolysis of Boc-AAPAN or Boc-AAPVN
Type: biochemical
Conditions: pH 7.5; second order rate constant for inactivation; Formula A, M n-propyl, R2 4-methyl (TABLE 1); read-out: kobs /[I]
Experimental: Enzyme Assays for the Inhibition of Human Polymorphonuclear Leukocyte
Elastase Via Hydrolysis of
N-t-Boc-alanyl-alanyl-prolylalanine-p-nitroanilide (Boc-AAPAN) or
N-t-Boc-alanyl-prolylvaline-p-nitroanilide (Boc-AAPVN) Reagent:
0.05M TES (N-tris[hydroxymethyl]methyl-2-amino-ethanesulfonic acid) Buffer, pH 7.5.
0.2 mM Boc-AAPAN or Boc-AAPVN.
To prepare substrate, the solid was first dissolved in 10.0 ml DMSO. Buffer at pH 7.5 was then added to a final volume of 100 ml.
Crude extract of human polymorphonuclear leukocytes (PMN) containing elastase activity.
Inhibitors (azetidinones) to be tested dissolved in DMSO just before use.
To 1.0 ml of 0.2 mM Boc-AAPAN in a cuvette, 0.01-0.1 ml of DMSO with or without inhibitor was added. After mixing, a measurement was taken at 410 mμ to detect any spontaneous hydrolysis due to presence of test compound. 0.05 Milliliters of PMN extract was then added and the ΔOD/min at 410 mμ was measured and recorded. Beckman model 35 spectrophotometer was used.
Results in Table I were reported as ID50, effective dosage in micrograms per milliliter (μg/ml) for 50% inhibition of the enzyme activity 2 minutes after zero time.
Results were also expressed as Ki, the micromolar concentration of the inhibitor (μM) giving 50% of the control enzyme activity; or as ^k obs/I which is the second order rate constant in per mole per second for inactivation of the enzyme.
The elastase activity in the crude PMN extract may vary from one preparation to another. A control of each new batch is run, and the volume added in the assay procedure is adjusted according to activity.

Row | Structure (SMILES) | kinact/KI [M⁻¹ s⁻¹]
6 | CCC[C@@H](NC(=O)N1C(=O)C(CC)(CC)[C@@H]1OCC(=O)N(CC)CCN(C)C)c1ccc(C)cc1 [Y=N(Et)CH2 CH2; R5=H; R7=Me; R8=Me, 2-(S)-[2-[[2-(Dimethylamino)ethyl]ethylamino]-2-oxoethoxy]-3,3-diethyl-N-[1-(R)-(4-methylphenyl)butyl]-4-oxo-1-azetidinecarboxamide] | 120000
7 | CCC[C@@H](NC(=O)N1C(=O)C(CC)(CC)[C@@H]1OCC(=O)N(C)CCN(C(C)C)C(C)C)c1ccc(C)cc1 [Y=N(Me)CH2 CH2; R5=H; R7=iPr; R8=iPr, 2-(S)-[2-[[2-(Diisopropylamino)ethyl]methylamino]-2-oxoethoxy]-3,3-diethyl-N-[1-(R)-(4-methylphenyl)butyl]-4-oxo-1-azetidinecarboxamide] | 115000
8 | CCC[C@@H](NC(=O)N1C(=O)C(CC)(CC)[C@@H]1O[C@@H](C)C(=O)N(C)CCN(CC)CC)c1ccc(C)cc1 [Y=N(Me)CH2 CH2; R5=Me; R7=Et; R8=Et, 2-(S)-[2-[[2-(Diethylamino)ethyl]methylamino]-2-oxo-(1-(S)-methyl)ethoxy]-3,3-diethyl-N-[1-(R)-(4-methylphenyl)butyl]-4-oxo-1-azetidinecarboxamide] | 1.8e+06
9 | CCC[C@@H](NC(=O)N1C(=O)C(CC)(CC)[C@@H]1O[C@@H](C)C(=O)N(C)CCN(C)C)c1ccc(C)cc1 [Y=N(Me)CH2 CH2; R5=Me; R7=Me; R8=Me, 2-(S)-[2-[[2-(Dimethylamino)ethyl]methylamino]-2-oxo-(1-(S)-methyl)ethoxy]-3,3-diethyl-N-[1-(R)-(4-methylphenyl)butyl]-4-oxo-l-azetidinecarboxamide] | 1.65e+06
10 | CCC[C@@H](NC(=O)N1C(=O)C(CC)(CC)[C@@H]1OCC(=O)N(CCC)CCN(CC)CC)c1ccc(C)cc1 [Y=N(Pr)CH2 CH2; R5=H; R7=Et; R8=Et, 2-(S)-[2-[[2-(Diethylamino)ethyl]propylamino]-2-oxoethoxy]-3,3-diethyl-N-[1-(R)-(4-methylphenyl)butyl]-4-oxo-1-azetidinecarboxamide] | 170000
11 | CCC[C@@H](NC(=O)N1C(=O)C(CC)(CC)[C@@H]1OCC(=O)N(CCN(CC)CC)C(C)C)c1ccc(C)cc1 [Y=N(iPr)CH2 CH2; R5=H; R7=Et; R8=Et] | 175000
12 | CCC[C@@H](NC(=O)N1C(=O)C(CC)(CC)[C@@H]1OCC(=O)N(CCN(C)C)C(C)C)c1ccc(C)cc1 [Y=N(iPr)CH2 CH2; R5=H; R7=Me; R8=Me] | 175000
13 | CCC[C@@H](NC(=O)N1C(=O)C(CC)(CC)[C@@H]1OCC(=O)NCCN1CCOCC1)c1ccc(C)cc1 [Y=NHCH2 CH2; R5=H; R7 R8=CH2 CH2OCH2 CH2, 2-(S)-[2-[[2-(morpholin-1-yl)ethyl]amino]-2-oxoethoxy]-3,3-diethyl-N-[1-(R)-(4-methylphenyl)butyl]-4-oxo-1-azetidinecarboxamide] | 115000
14 | CCC[C@@H](NC(=O)N1C(=O)C(CC)(CC)[C@@H]1OCC(=O)NCCN(CC)CC)c1ccc(C)cc1 [Y=NHCH2 CH2; R5=H; R7=Et; R8=Et, 2-(S)-[2-[[2-(Diethylamino)ethyl]amino]-2-oxoethoxy]-3,3-diethyl-N-[1-(R)-(4-methylphenyl)butyl]-4-oxo-1-azetidinecarboxamide] | 220000
15 | CCC[C@@H](NC(=O)N1C(=O)C(CC)(CC)[C@@H]1OCC(=O)NCCN(C(C)C)C(C)C)c1ccc(C)cc1 [Y=NHCH2 CH2; R5=H; R7=iPr; R8=iPr, 2-(S)-[2-[[2-(Diisopropylamino)ethyl]amino]-2-oxoethoxy]-3,3-diethyl-N-[1-(R)-(4-methylphenyl)butyl]-4-oxo-1-azetidinecarboxamide] | 105000
16 | CCC[C@@H](NC(=O)N1C(=O)C(CC)(CC)[C@@H]1O[C@@H](C)C(=O)NCCN(CC)CC)c1ccc(C)cc1 [Y=NHCH2 CH2; R5=Me; R7=Et; R8=Et, 2-(S)-[2-[[2-(Diethylamino)ethyl]amino]-2-oxo-(1-(S)-methyl)ethoxy]-3,3-diethyl-N-[1-(R)-(4-methyl-phenyl)butyl]-4-oxo-l-azetidinecarboxamide] | 1.35e+06
17 | CCC[C@@H](NC(=O)N1C(=O)C(CC)(CC)[C@@H]1O[C@@H](C)C(=O)NCCN(C)C)c1ccc(C)cc1 [Y=NHCH2 CH2; R5=Me; R7=Me; R8=Me, 2-(S)-[2-[[2-(Dimethylamino)ethyl]amino]-2-oxo-(1-(S)-methyl)ethoxy]-3,3-diethyl-N-[1-(R)-(4-methylphenyl)butyl]-4-oxo-1-azetidinecarboxamide] | 1.04e+06
18 | CCC[C@@H](NC(=O)N1C(=O)C(CC)(CC)[C@@H]1OCC(=O)N(CC)CC)c1ccc(C)cc1 [Y=co-valent bond; R5=H; R7=Et; R8=Et] | 315000
19 | CCC[C@@H](NC(=O)N1C(=O)C(CC)(CC)[C@@H]1OCC(=O)N(C)C)c1ccc(C)cc1 [Y=co-valent bond; R5=H; R7=Me; R8=Me] | 125000

Same assay, conditions: pH 7.5; second order rate constant; Formula A, M n-propyl, R4 piperazine amide with substituent Z; read-out: kobs /[I]

Row | Structure (SMILES) | kinact/KI [M⁻¹ s⁻¹]
20 | CCC[C@@H](NC(=O)N1C(=O)C(CC)(CC)[C@@H]1OCC(=O)N1CCN(C)CC1)c1ccc(C)cc1 [R2=4-Me; R5=H; Z=--Me, 2-(S)-[2-[2-(4-Methyl)piperazin-1-yl]-2-oxoethoxy]-3,-3-diethyl-N-[1-(R)-(4-methylphenyl)-butyl]4-oxo-1-azetidinecarboxamide] | 150000
